Reference: patent US20250243245A1 (priority 2022, published 2025)
Where a SMILES comes first, the peptide text is derived from it.

Tested on: E. coli strain BL21
Conditions: BL21, 24 h

Compound	MIC
N=C(N)NCCC[C@H](NC(=O)[C@H](Cc1c[nH]c2ccccc12)NC(=O)[C@H](Cc1c[nH]c2ccccc12)NC(=O)[C@H](CCCNC(=N)N)NC(=O)[C@H](Cc1c[nH]c2ccccc12)NC(=O)[C@H](Cc1c[nH]c2ccccc12)NC(=O)[C@H](CCCNC(=N)N)NC(=O)[C@@H](N)CCCNC(=N)N)C(=O)O [Peptide 8P-1, reference compound] (H-RRWWRWWR-OH; N-terminus and C-terminus assumed)	>20 mM
CC[C@H](C)[C@H](NC(=O)[C@H](CC(N)=O)NC(=O)[C@H](CCCNC(=N)N)NC(=O)[C@H](CCC(N)=O)NC(=O)[C@H](Cc1c[nH]c2ccccc12)NC(=O)[C@H](CCC(N)=O)NC(=O)[C@@H](N)Cc1ccccc1)C(=O)N[C@@H](CCCNC(=N)N)C(=O)N[C@@H](CCCCN)C(=O)N[C@H](C(=O)N[C@@H](CCCNC(=N)N)C(=O)O)C(C)C [Peptide 11P-2, FQWORNIRKVR, reference compound] (H-FQWQRNIRKVR-OH)	>20 mM
CC[C@H](C)[C@H](N)C(=O)N[C@@H](CCC(=O)O)C(=O)N[C@@H](CCCNC(=N)N)C(=O)N[C@@H](CO)C(=O)N[C@H](C(=O)N[C@@H](CC(N)=O)C(=O)N[C@@H](CC(C)C)C(=O)N[C@@H](CC(=O)O)C(=O)N[C@@H](Cc1c[nH]c2ccccc12)C(=O)N[C@@H](Cc1ccc(O)cc1)C(=O)N[C@@H](CCCCN)C(=O)NCC(=O)N1CCC[C@H]1C(=O)N[C@H](C(=O)N[C@@H](CC(C)C)C(=O)N[C@@H](CC(C)C)C(=O)O)[C@@H](C)O)[C@@H](C)O [Peptide 16P-1, reference compound] (H-IERSTNLDWYKGPTLL-OH; N-terminus and C-terminus assumed)	>20 mM
CC[C@H](C)[C@H](NC(=O)[C@H](CCCNC(=N)N)NC(=O)[C@H](CCCNC(=N)N)NC(=O)[C@H](CCC(N)=O)NC(=O)[C@H](Cc1c[nH]c2ccccc12)NC(=O)[C@H](Cc1ccccc1)NC(=O)CNC(=O)[C@@H]1CCCN1C(=O)[C@H](CO)NC(=O)CNC(=O)[C@H](Cc1ccc(O)cc1)NC(=O)CNC(=O)[C@H](CO)NC(=O)CNC(=O)[C@H](CCCNC(=N)N)NC(=O)[C@H](Cc1c[nH]c2ccccc12)NC(=O)[C@H](Cc1c[nH]c2ccccc12)NC(=O)[C@H](CCCNC(=N)N)NC(=O)[C@H](Cc1c[nH]c2ccccc12)NC(=O)[C@H](Cc1c[nH]c2ccccc12)NC(=O)[C@H](CCCNC(=N)N)NC(=O)[C@@H](N)CCCNC(=N)N)C(=O)N[C@@H](CCCNC(=N)N)C(=O)N[C@@H](CCCNC(=N)N)C(=O)N[C@@H](Cc1c[nH]c2ccccc12)C(=O)N[C@@H](CCCNC(=N)N)C(=O)N[C@@H](CCCNC(=N)N)C(=O)O [Peptide 27P-1] (H-RRWWRWWRGSGYGSPGFWQRRIRRWRR-OH; N-terminus and C-terminus assumed)	>20 mM
CC[C@H](C)[C@H](NC(=O)[C@H](CCCNC(=N)N)NC(=O)[C@H](CCCNC(=N)N)NC(=O)[C@H](CCC(N)=O)NC(=O)[C@H](Cc1c[nH]c2ccccc12)NC(=O)[C@@H](N)Cc1ccccc1)C(=O)N[C@@H](CCCNC(=N)N)C(=O)N[C@@H](CCCNC(=N)N)C(=O)N[C@@H](Cc1c[nH]c2ccccc12)C(=O)N[C@@H](CCCNC(=N)N)C(=O)N[C@@H](CCCNC(=N)N)C(=O)NCC(=O)N[C@@H](CO)C(=O)NCC(=O)N[C@@H](Cc1ccc(O)cc1)C(=O)NCC(=O)N[C@@H](CO)C(=O)N1CCC[C@H]1C(=O)NCC(=O)N[C@@H](CCCNC(=N)N)C(=O)N[C@@H](CCCNC(=N)N)C(=O)N[C@@H](Cc1c[nH]c2ccccc12)C(=O)N[C@@H](Cc1c[nH]c2ccccc12)C(=O)N[C@@H](CCCNC(=N)N)C(=O)N[C@@H](Cc1c[nH]c2ccccc12)C(=O)N[C@@H](Cc1c[nH]c2ccccc12)C(=O)N[C@@H](CCCNC(=N)N)C(=O)O [Peptide 27P-2] (H-FWQRRIRRWRRGSGYGSPGRRWWRWWR-OH; N-terminus and C-terminus assumed)	5 to 10 mM
CC[C@H](C)[C@H](NC(=O)[C@H](CCCCN)NC(=O)[C@H](CC(C)C)NC(=O)[C@@H](NC(=O)[C@H](CCCCN)NC(=O)[C@H](CCCNC(=N)N)NC(=O)[C@H](C)NC(=O)[C@@H]1CCCN1C(=O)[C@H](CCCCN)NC(=O)[C@@H](N)CCCNC(=N)N)C(C)C)C(=O)N[C@@H](CC(C)C)C(=O)NCC(=O)N[C@@H](CCCNC(=N)N)C(=O)NCC(=O)N[C@@H](CO)C(=O)N[C@@H](CCC(=O)O)C(=O)N[C@@H](Cc1ccccc1)C(=O)N[C@@H](Cc1c[nH]c2ccccc12)C(=O)N[C@@H](CCC(N)=O)C(=O)N[C@@H](CCCCN)C(=O)N[C@@H](CCCNC(=N)N)C(=O)N[C@H](C(=O)N[C@@H](CCCNC(=N)N)C(=O)N[C@@H](CCCNC(=N)N)C(=O)N[C@@H](Cc1c[nH]c2ccccc12)C(=O)N[C@@H](CCCNC(=N)N)C(=O)N[C@@H](CCCNC(=N)N)C(=O)O)C(C)C [Peptide 27P-3] (H-RKPARKVLKILGRGSEFWQKRVRRWRR-OH; N-terminus and C-terminus assumed)	10 to 20 mM
CC[C@H](C)[C@H](NC(=O)[C@H](CCCCN)NC(=O)[C@H](CC(C)C)NC(=O)[C@@H](NC(=O)[C@H](CCCCN)NC(=O)[C@H](CCCCN)NC(=O)[C@@H](NC(=O)[C@H](CC(C)C)NC(=O)[C@H](CCCCN)NC(=O)[C@@H](N)CCCCN)[C@@H](C)CC)[C@@H](C)CC)C(=O)N[C@@H](CC(C)C)C(=O)NCC(=O)N[C@@H](CO)C(=O)NCC(=O)N[C@@H](Cc1ccc(O)cc1)C(=O)NCC(=O)N[C@@H](CO)C(=O)N1CCC[C@H]1C(=O)NCC(=O)N[C@@H](Cc1ccccc1)C(=O)N[C@@H](Cc1c[nH]c2ccccc12)C(=O)N[C@@H](CCC(N)=O)C(=O)N[C@@H](CCCNC(=N)N)C(=O)N[C@@H](CCCNC(=N)N)C(=O)N[C@H](C(=O)N[C@@H](CCCNC(=N)N)C(=O)N[C@@H](CCCNC(=N)N)C(=O)N[C@@H](Cc1c[nH]c2ccccc12)C(=O)N[C@@H](CCCNC(=N)N)C(=O)N[C@@H](CCCNC(=N)N)C(=O)O)[C@@H](C)CC [Peptide 30P-1]	1.25 to 2.5 mM
CC[C@H](C)[C@H](NC(=O)[C@H](CCCCN)NC(=O)[C@H](CC(C)C)NC(=O)[C@@H](NC(=O)[C@H](CCCCN)NC(=O)[C@H](CCCCN)NC(=O)[C@@H](NC(=O)[C@H](CC(C)C)NC(=O)[C@H](CCCCN)NC(=O)[C@H](CCCCN)NC(=O)CNC(=O)[C@@H]1CCCN1C(=O)[C@H](CO)NC(=O)CNC(=O)[C@H](Cc1ccc(O)cc1)NC(=O)CNC(=O)[C@H](CO)NC(=O)CNC(=O)[C@H](CCCNC(=N)N)NC(=O)[C@H](CCCNC(=N)N)NC(=O)[C@H](Cc1c[nH]c2ccccc12)NC(=O)[C@H](CCCNC(=N)N)NC(=O)[C@H](CCCNC(=N)N)NC(=O)[C@@H](NC(=O)[C@H](CCCNC(=N)N)NC(=O)[C@H](CCCNC(=N)N)NC(=O)[C@H](CCC(N)=O)NC(=O)[C@H](Cc1c[nH]c2ccccc12)NC(=O)[C@@H](N)Cc1ccccc1)[C@@H](C)CC)[C@@H](C)CC)[C@@H](C)CC)C(=O)N[C@@H](CC(C)C)C(=O)O [Peptide 30P-2] (H-FWQRRIRRWRRGSGYGSPGKKLIKKILKIL-OH; N-terminus and C-terminus assumed)	1.25 to 2.5 mM
CC[C@H](C)[C@H](N)C(=O)N[C@@H](CCC(=O)O)C(=O)N[C@@H](CCCNC(=N)N)C(=O)N[C@@H](CO)C(=O)N[C@@H](CCCNC(=N)N)C(=O)N[C@@H](CC(N)=O)C(=O)N[C@@H](CC(C)C)C(=O)N[C@@H](CC(=O)O)C(=O)N[C@@H](Cc1c[nH]c2ccccc12)C(=O)N[C@@H](Cc1ccc(O)cc1)C(=O)N[C@@H](CCCCN)C(=O)NCC(=O)N1CCC[C@H]1C(=O)N[C@H](C(=O)N[C@@H](CC(C)C)C(=O)N[C@@H](CC(C)C)C(=O)N[C@@H](CC(=O)O)C(=O)N[C@@H](C)C(=O)N[C@@H](CC(C)C)C(=O)N[C@@H](CCCCN)C(=O)N[C@@H](CC(N)=O)C(=O)N[C@@H](CC(C)C)C(=O)N[C@@H](CC(N)=O)C(=O)N[C@@H](CCC(=O)O)C(=O)NCC(=O)N[C@@H](CCCCN)C(=O)N[C@@H](CCCNC(=N)N)C(=O)O)[C@@H](C)O [Peptide I27AB] (H-IERSRNLDWYKGPTLLDALKNLNEGKR-OH; N-terminus and C-terminus assumed)	>20 mM
CC[C@H](C)[C@H](N)C(=O)N[C@@H](CCC(=O)O)C(=O)N[C@@H](CCCNC(=N)N)C(=O)N[C@@H](CO)C(=O)N[C@@H](CCCNC(=N)N)C(=O)N[C@@H](CC(N)=O)C(=O)N[C@@H](CC(C)C)C(=O)N[C@@H](CC(=O)O)C(=O)N[C@@H](Cc1c[nH]c2ccccc12)C(=O)N[C@@H](Cc1ccc(O)cc1)C(=O)N[C@@H](CCCCN)C(=O)NCC(=O)N1CCC[C@H]1C(=O)N[C@H](C(=O)N[C@@H](CC(C)C)C(=O)N[C@@H](CC(C)C)C(=O)N[C@@H](CC(=O)O)C(=O)N[C@@H](C)C(=O)N[C@@H](CC(C)C)C(=O)N[C@@H](CCCCN)C(=O)N[C@@H](CC(N)=O)C(=O)N[C@@H](CC(C)C)C(=O)N[C@@H](CC(N)=O)C(=O)N[C@@H](CCC(=O)O)C(=O)NCC(=O)N[C@@H](CCCCN)C(=O)N[C@@H](CCCNC(=N)N)C(=O)N1CCC[C@H]1C(=O)N[C@@H](CO)C(=O)N[C@@H](CC(=O)O)C(=O)N[C@@H](CCCCN)C(=O)O)[C@@H](C)O [Peptide I31LB] (H-IERSRNLDWYKGPTLLDALKNLNEGKRPSDK-OH; N-terminus and C-terminus assumed)	>20 mM
CC[C@H](C)[C@H](NC(=O)[C@H](CCCNC(=N)N)NC(=O)[C@H](CCCNC(=N)N)NC(=O)[C@H](CCC(N)=O)NC(=O)[C@H](Cc1c[nH]c2ccccc12)NC(=O)[C@H](Cc1ccccc1)NC(=O)CNC(=O)[C@@H]1CCCN1C(=O)[C@H](CO)NC(=O)CNC(=O)[C@H](Cc1ccc(O)cc1)NC(=O)[C@@H](NC(=O)[C@H](CO)NC(=O)CNC(=O)[C@H](Cc1ccc(O)cc1)NC(=O)[C@H](CO)NC(=O)CNC(=O)[C@H](CCCNC(=N)N)NC(=O)[C@H](Cc1c[nH]c2ccccc12)NC(=O)[C@H](Cc1c[nH]c2ccccc12)NC(=O)[C@H](CCCNC(=N)N)NC(=O)[C@H](Cc1c[nH]c2ccccc12)NC(=O)[C@H](Cc1c[nH]c2ccccc12)NC(=O)[C@H](CCCNC(=N)N)NC(=O)[C@@H](N)CCCNC(=N)N)C(C)C)C(=O)N[C@@H](CCCNC(=N)N)C(=O)N[C@@H](CCCNC(=N)N)C(=O)N[C@@H](Cc1c[nH]c2ccccc12)C(=O)N[C@@H](CCCNC(=N)N)C(=O)N[C@@H](CCCNC(=N)N)C(=O)O [UGI-7] (H-RRWWRWWRGSYGSVYGSPGFWQRRIRRWRR-OH; N-terminus and C-terminus assumed)	5 to 10 mM
